Results taken from US8399005B2, “Use of nitric oxide to enhance the efficacy of silver and other topical wound care agents” (University of North Carolina at Chapel Hill, priority 2007, dated 2013).

Columns and labels:
[1] = test system: S. aureus; conditions: TSB
Procedure: (§1) Determining the Minimum Bactericidal Concentration (MBC120). […] This value, the MBC120, was acquired by growing S. aureus to an OD600=0.075 in TSB. At this value the concentration was determined to be 10^8 CFUs/mL. In order to achieve a final bacterial concentration of 10^4, four ten-fold dilutions were performed in TSB. […] For proli/NO, 1 mL of 2×10^4 CFUs/mL bacterial solution was added to various masses (0.5-16 mg). […] The plates were incubated overnight at 37° C. and enumerated. The graphs present the total CFUs present in each tube as determined by counting each colony and multiplying that number by 100 to account for both 10-fold dilutions. Determination of Fractional Bactericidal Concentration (FBC120). […] S. aureus was cultured to a concentration of 10^8 CFUs/mL and the concentration was adjusted to 2×10^4 CFUs/mL in TSB. […] After incubating the plates overnight at 37° C., viability was determined by counting the number of distinct colonies on each plate and multiplying this number by 100 to account for the two 10-fold dilutions. The numerical value of the FBC120 was obtained according to the equation:

[2] = test system: P. aeruginosa; test: Bactericidal assays under static conditions (PBS); assay type: cell-based
Procedure: Bactericidal assays under static conditions. […] Silica nanoparticles (NO-releasing and control), PROLI/NO, and proline were added to separate aliquots of the bacterial suspension over a concentration range optimized for each system. After 1 h incubation at 37° C. with gentle agitation, 100-μL aliquots from each suspension were plated on tryptic soy agar. After overnight incubation at 37° C., the colonies on each plate were counted, allowing for calculation of the number of viable P. aeruginosa cells in each vial at the time of plating.

[3] = test system: P. aeruginosa cells; test: Confocal microscopy with DAF-2 DA NO probe and propidium iodide; assay type: cell-based
Text: Once inside the bacterial cell membrane, the DAF-2 DA probe is hydrolyzed to DAF-2, which is membrane-impermeable. […] Cells loaded with DAF-2 were imaged in the presence of propidium iodide (PI), which is a nucleic acid viability dye that only enters cells with compromised membranes, and fluoresces red once inside the cells. Thus, red fluorescence is indicative of cell death. […] After a peak intracellular intensity of DAF-2 fluorescence was reached, the red fluorescence of the PI began to increase, indicating entry of the PI into the cells due to membrane disruption and cell death.

[4] = assay type: physicochemical
Procedure: We synthesized proli/NO by subjecting a 2:1 molar ratio of sodium methoxide in methanol and proline to 5 atm of NO for 3 days. To the resulting solution excess diethyl ether was added. After vacuum removal of solvent a white solid was obtained. Its NO release was monitored using chemiluminescence; we determined that proli/NO releases a total of 1.8 μmol NO/mg in less than 70 s when exposed to PBS at pH 7.4. Release is initiated quickly by protonation of proline's cyclic amine or slowly by thermal degradation. In the MBC120 determination, proli/NO was kept on ice until exposure to bacterial solution to prevent thermal NO release. Proli/NO's MBC120 is 16 mg/mL against S. aureus. […] See Turner, T. D., et al., J Pharm. Pharmacol. 41, 775-80 (1989). […] Synergy is determined based on inhibition beyond what would be expected for each alone. […] More specifically, the MBC was used instead of the MIC, once again because we are interested in reducing a bacterium's chances of becoming resistant to the drug employed by developing conditions that will lead to a quick kill. Additionally, reducing the bacterial burden in wound beds quickly is paramount to prevent infections. […] See Feng Q. L. et al., J. Biomed. Mater. Res. 52, 662-668 (2000).
Nitric oxide release measurements. Nitric oxide release from both the diazeniumdiolate-modified silica nanoparticles and PROLI/NO was measured in deoxygenated phosphate-buffered saline (PBS, 0.01 M; 37° C.) at pH 7.4 using a Sievers NOA 280i chemiluminescence NO analyzer (Boulder, Colo.). Nitric oxide released from the donors was transported to the analyzer by a stream of N2 (70 mL·min^−1) passed through the reaction cell. The instrument was calibrated with air passed through a NO zero filter (0 ppm NO) and a 24.1 ppm NO standard gas (balance N2).

[5] = test system: L929 cells; test: L929 propidium iodide (PI) viability assay (Example 1); assay type: cell-based, mouse; conditions: 2 mg/mL, L929, KRH buffer
Procedure: [formula] L929 propidium iodide (PI) viability assay. L929 cells were plated on 24-well tissue culture treated dishes (BD Bioscience #353047) at a density of 3.0×10^5 cells/ml (150×10^3 cells/well) and incubated overnight at 37° C., in 5% CO2/95% air for 18-20 h. For the PI assay, the incubation buffer was aspirated from each of the wells and replaced with 500 μL of Krebs-Ringer-HEPES (KRH) buffer containing (mM): 115 NaCl, 5 KCl, 1 CaCl2, 1 KH2PO4, 1.2 MgSO4, 25 HEPES, pH 7.4, supplemented with 30 μM of PI. The fluorescence of the cells was determined in a concentration-dependent manner against both proli/NO and proline, as monitored using a FluoStar Galaxy plate reader (BMG Labtech, Durham, N.C.) with excitation and emission filters set at 544 and 640 nm, respectively. Fluorescence was acquired at 0 and 60 min. An additional 20 min incubation of cells with 40 μM digitonin was required to completely permeabilize plasma membranes and achieve maximum PI fluorescence. Cell viability was represented as an increase in PI fluorescence from each well expressed as percentage of the maximum fluorescence obtained in cells treated with digitonin (100% cell death). S. aureus cytotoxicity assay in PBS. […] Toxicity was measured by aliquoting this bacterial solution into eppendorf tubes containing proli/NO, incubating these solutions for one hour at 37° C., and then plating them on TSA plates. […]

[6] = test system: S. aureus; test: Fractional bactericidal concentration (FBC120) time-based synergistic killing assay in TSB; assay type: cell-based
Procedure: as §1

[7] = test system: P. aeruginosa; test: Time-based bactericidal assays under nutrient growth conditions (TSB); assay type: cell-based; parameters: amount of NO per mL required for complete bacterial killing: unit not given here
Procedure: Time-based bactericidal assays under nutrient growth conditions. To test the temporal efficacy of the NO-releasing silica nanoparticles, time-based antibacterial assays were conducted in TSB nutrient media. P. aeruginosa was cultured in TSB to a concentration of 10^8 CFU·mL^−/1 and diluted to 10^4 CFU·mL^−1 in additional TSB. […] Bacterial viability was determined as described above after incubating the plates overnight at 37° C.

[8] = test system: mammalian cells; conditions: 200 ppm for 4 hours; cited from earlier work
[9] = amount of NO equal to 100 μg·mL^−1 nanoparticles

O=C([O-])C1CCCN1[N+]([O-])=N[O-].[Na+].[Na+] (stereo not shown) [proli/NO]
MBC120 (concentration for three logs of killing within 120 min) [1]: 16 mg/mL
amount of NO required per mL for a 3 log reduction in bacterial viability ([2]; PBS, 1 h): 4.5 μmol NO
concentration completely bactericidal (3 logs of killing) ([2]; PBS, 1 h): 2.5 mg·mL^−1
mass required relative to silica nanoparticles for complete killing ([2]; PBS, by mass): approximately 35 times
P. aeruginosa cell death (PI fluorescence) ([3]; 5 mg·mL^−1): rapid cell death
intracellular DAF-2 fluorescence prior to cell death ([3]; 5 mg·mL^−1): still not observed
P. aeruginosa cell death (PI fluorescence) [3, 9]: cell death was not observed
intracellular DAF-2 fluorescence [3, 9]: no intracellular DAF-2 fluorescence was observed
time in which the total NO is released ([4]; PBS at pH 7.4 (Example 1)): less than 70 s
total NO released ([4]; PBS at pH 7.4 (Example 1)): 1.8 μmol NO/mg
total amount of NO released (t[NO]) ([4]; PBS pH 7.4, 37° C. (Example 2)): 1.8 μmol NO·mg^−1
time required to reach the maximum NO flux (tm) ([4]; after immersion in / addition to buffer): approximately 1 min
maximum NO flux ([NO]m) ([4]; not told, pH 7.4): > 145000 ppb·mg^−1
NO release half life (t1/2) ([4]; pH 7.4): < 2 min
toxicity to dermal fibroblasts [5]: non-toxic
toxicity to S. aureus, agent alone ([6]; 8 mg/mL proli/NO alone): non-toxic
fraction of MBC120 used in the combination ([6]; 2/16 mg/mL proli/NO, 21.9/[…] AgSD): 0.125
time to complete killing ([7]; 12 mg·mL^−1, TSB): 30 min
time of bacterial killing ([7]; 12 and 20 mg·mL^−1, TSB): < 30 min
amount of NO per mL required for complete bacterial killing ([7]; TSB): 21.6

nitric oxide [NO gas]
toxicity to mammalian cells [8]: not toxic

O=C(O)[C@@H]1CCCN1 [proline]
killing of P. aeruginosa by controls depleted of NO ([2]; over the concentration ranges tested): no killing
toxicity to P. aeruginosa ([2]; up to 20 mg·mL^−1, the highest concentrations tested): no toxicity
growth of P. aeruginosa exposed to control solutions ([7]; TSB, 2 h): proliferated

NCCNCCN [diethylenetriamine backbone, diethylenetriamine]
toxicity of backbone alone to P. aeruginosa ([2]; data not shown): considerable toxicity
